The source of these data is publication PMC4428793, “MK571 inhibits phase-2 conjugation of flavonols by Caco-2/TC7 cells, but does not specifically inhibit their apical efflux^” (Biochemical Pharmacology, 2015).

In one series the test system is Caco-2/TC7 cells. Nature of the series: Flavonol metabolism and transport experiments on Caco-2/TC7 transwell monolayers, effect of MK571. In kind it is cell-based, human. The settings on record: apical to basolateral ratio of efflux of the conjugate, 60 min, 12-well transwells. The procedure: Cells were grown at 37 °C in a humidified incubator with 5% CO2 in Dulbecco Modified Eagle's Medium (DMEM) containing 1% non-essential amino acids, 1% L-glutamine, 100 IU/mL penicillin and 100 μg/mL streptomycin, 1 g/L glucose, and supplemented with 20% (v/v) heat inactivated fetal calf serum. Cells were passaged at 80% confluency, and seeded at 2–4 × 10^4 cells per cm^2 on 10 cm dishes (growing area 75 cm^2) or 12-well transwells (growing area of 1.1 cm^2). […] Toxicity of MK571 on Caco-2/TC7 cell monolayers was determined through comparison of pre- and post-loading TEER values of wells incubated with MK571.
Flavonol stocks (quercetin, kaempferol, galangin; 10 mM) were prepared in dimethylsulfoxide (DMSO) and stored at −20 °C. MK571 was dissolved in dimethyl sulfoxide (10 mM final concentration) and stored at −20 °C. Prior to the metabolism or transport experiments, cells were aspirated of media and washed three times with phosphate buffered saline (PBS). To foetal calf serum and phenol red-free DMEM was added ascorbic acid at a final concentration of 100 μM as well as MK571 at the desired concentration. For metabolism experiments, 10 mL of this media was added to the cells in 10 cm dishes. For transport experiments using transwells, 0.6 mL of this media was added to the apical compartment of the transwell and 1 mL was added to the basolateral compartment. Control wells received an equivalent dose of dimethyl sulfoxide as the treatment wells. Cells were incubated at 37 °C for 30 min, after which flavonols dissolved in dimethyl sulfoxide (kaempferol, galangin or quercetin) were added to the media of treatment wells at a final concentration of 40 or 100 μM, while control wells were treated with the dimethyl sulfoxide vehicle alone. Concentrations of quercetin were increased to 100 μM because instability of quercetin in media necessitated higher initial loading to maintain adequate cellular and media concentrations for uptake and metabolism of the flavonol. Control and treatment cells were incubated at 37 °C for the periods indicated in the results.
Following the required incubation period, media and cell fractions were harvested and analysed to identify and quantify flavonol metabolites using HPLC. Media was removed from the apical (0.5 mL) and basolateral (0.5 mL) compartments of transwells and added to 25 μL trifluoroacetic acid and 25 μL HPLC grade acetonitrile. Media from 10 cm dishes (1 mL) was removed and added to 50 μL trifluoroacetic acid and 25 μL HPLC grade acetonitrile. Cells were washed three times with cold (room temperature) phosphate buffered saline solution and scraped free of the dish surface. For transwells, 100 μL MilliQ water was added to the cells and the resulting cell suspension pipetted into 10 μL trifluoroacetic acid and 10 μL HPLC grade acetonitrile. For 10 cm dishes, the resulting cell suspension was pipetted into 25 μL trifluoroacetic acid and 25 μL HPLC grade acetonitrile. Samples were either analysed immediately or otherwise stored at −20 °C prior to HPLC analysis. Flavonols were stable during frozen storage and thawing (no significant losses up to 26 weeks).
Media samples were thawed where necessary and then mixed using a vortex mixer, centrifuged for 10 min at 14,000 × g using a micro centrifuge, and the supernatant removed and placed in an HPLC vial for analysis. Cell samples were vortex-mixed and then ultra-sonicated (sonic water bath) for 10 min, vortex mixed again and then centrifuged for 10 min at 14,000 × g using a micro-centrifuge, before removal of supernatant for HPLC analysis. Identification and quantification of individual flavonol metabolites was carried out using liquid chromatography–mass spectrometry and nuclear magnetic resonance analyses, as described previously. […]
In general terms: Caco-2 cells form a polarised layer with tight junctions and transporters.

In the next series the test system is Caco-2/TC7 cell lysate. As to the kind of experiment: Flavonol conjugate production by Caco-2/TC7 cell free lysate, effect of MK571. The note with it: aglycone 40 μM; for Change in rate (%): MK571 50 μM vs control; for Rate +MK571 (conjugate production): MK571 50 μM; for Rate +MK571 (conjugate production) / Rate control (conjugate production): slope (standard error of the slope); for Rate control (conjugate production): no MK571. In kind it is biochemical, human. The procedure:
Cells were grown until 21 days post confluent and washed and aspirated as described previously. The cells were then scraped into tubes and these tubes kept on ice at all times throughout the preparation procedure. Homogenisation buffer comprised of sodium phosphate buffer (50 mM adjusted to pH 6.5; 20 mL), two mini protease inhibitor cocktail tablets containing EDTA and perfabloc, dithiothreitol (30.8 mg), alamethacin (20 μL of a 22 μg/mL) solution from T. viride; and MgCl2 (3.5 mg). Cell-free homogenates were prepared by mixing cells with homogenisation buffer (50:50, vol/vol) and vortexing with glass beads in an eppendorf tube three times for 1 min over a 10 min period. To 900 μL of cell free lysate was added 10 μL uridine 5′-diphosphoglucuronic acid (4 mM final concentration) with uridine 5′-diphospho-N-acetyl-glucosamine (dissolved in homogenisation buffer, 2 mM final concentration); 10 μL MK571 (50 mmol/L stock diluted 1:9 with homogenisation buffer) or 10 μL dimethyl sulfoxide blank (diluted 1:9 with homogenisation buffer). The tubes were allowed to warm and once they reached 37 °C, the flavonols were added at the relevant concentration (kaempferol, quercetin or galangin; 10 mmol/L stock in dimethyl sulfoxide diluted 1:1 with homogenisation buffer, plus homogenisation buffer added to create a final volume of 1000 μL) and the tube vortexed briefly. The experiment was stopped by addition of a mixture of 50 μL trifluoracetic acid and 50 μL acetonitrile. Samples were then centrifuged for 10 min at 14,000 × g. The supernatant was removed and analysed via HPLC.

As to `O=C(O)[C@H]1O[C@@H](Oc2cc(O)c3c(=O)c(O)c(-c4ccc(O)cc4)oc3c2)[C@H](O)[C@@H](O)[C@@H]1O` [K-7-GlcA, kaempferol-7-glucuronide], in the series on Caco-2/TC7 cells, the “Ap:Bl ratio (50 μM MK571)” value is 0.35 (±0.063), the “Ap:Bl ratio (100 μM MK571)” value is reported as 0.44 (±0.021) and the “Ap:Bl ratio (No MK571)” value is listed as 0.28 (±0.044). For the same compound, in the series on Caco-2/TC7 cell lysate, the “Change in rate (%)” value is on record as −38.2%, the “Rate +MK571 (conjugate production)” value was 0.69 (±0.02) pmol/h and the “Rate control (conjugate production)” value is on record as 1.12 (±0.09) pmol/h.

On to kaempferol sulphate [K-S], for which, in the series with Caco-2/TC7 cells, the “Ap:Bl ratio (50 μM MK571)” value is given as 3.92 (±0.646), the “Ap:Bl ratio (100 μM MK571)” value is on record as 0.14 (±0.006) and the “Ap:Bl ratio (No MK571)” value is given as 3.02 (±0.230).

As to `O=C(O)[C@H]1O[C@@H](Oc2cc(-c3oc4cc(O)cc(O)c4c(=O)c3O)ccc2O)[C@H](O)[C@@H](O)[C@@H]1O` [Q-3′-GlcA], in the series on Caco-2/TC7 cells, the “Ap:Bl ratio (50 μM MK571)” value was determined as 100% apical and the “Ap:Bl ratio (No MK571)” value was 100% apical. For the same compound, in the series on Caco-2/TC7 cell lysate, the “Change in rate (%)” value is reported as “+25.6%”, the “Rate +MK571 (conjugate production)” value is listed as 2.62 (±0.24) pmol/h and the “Rate control (conjugate production)” value was 2.09 (±0.12) pmol/h.

In the case of `O=C(O)[C@H]1O[C@@H](Oc2ccc(-c3oc4cc(O)cc(O)c4c(=O)c3O)cc2)[C@H](O)[C@@H](O)[C@@H]1O` [K-4′-GlcA, kaempferol-4′-glucuronide], in the series with Caco-2/TC7 cells, the “Ap:Bl ratio (50 μM MK571)” value was 0.33 (±0.080), the “Ap:Bl ratio (100 μM MK571)” value is reported as 0.43 (±0.018) and the “Ap:Bl ratio (No MK571)” value is 0.26 (±0.066).

With kaempferol-sulfo-glucuronide [K-S-GlcA], in the series with Caco-2/TC7 cells, the “Ap:Bl ratio (50 μM MK571)” value was 0.42 (±0.121), the “Ap:Bl ratio (100 μM MK571)” value was 0.43 (±0.028) and the “Ap:Bl ratio (No MK571)” value was 0.59 (±0.174). For the same compound, in the series on Caco-2/TC7 cell lysate, the “Rate +MK571 (conjugate production)” value is 0.34 (±0.02) pmol/h and the “Rate control (conjugate production)” value was 0.54 (±0.04) pmol/h.

On to `O=C(O)C1OC(Oc2cc(O)cc3oc(-c4ccccc4)c(O)c(=O)c23)C(O)C(O)C1O` (stereo not shown) [G-5-GlcA], for which, in the series with Caco-2/TC7 cells, the “Ap:Bl ratio (50 μM MK571)” value is reported as 0.30 (±0.024) and the “Ap:Bl ratio (No MK571)” value was 0.19 (±0.020).

For galangin sulphate [G-S], in the series on Caco-2/TC7 cells, the “Ap:Bl ratio (50 μM MK571)” value is reported as 9.10 (±0.783) and the “Ap:Bl ratio (No MK571)” value is listed as 13.6 (±1.440).

`O=C(O)[C@H]1O[C@@H](Oc2cc(O)c3c(=O)c(O)c(-c4ccccc4)oc3c2)[C@H](O)[C@@H](O)[C@@H]1O` [G-7-GlcA, galangin-7-glucuronide]: in the series with Caco-2/TC7 cells, the “Ap:Bl ratio (50 μM MK571)” value is 0.51 (±0.036) and the “Ap:Bl ratio (No MK571)” value is recorded as 0.54 (±0.058). In the series with Caco-2/TC7 cell lysate, the “Change in rate (%)” value is given as −45.7%, the “Rate +MK571 (conjugate production)” value is 19.8 (±1.63) pmol/h and the “Rate control (conjugate production)” value is recorded as 36.5 (±1.49) pmol/h.

As to `O=C(O)[C@H]1O[C@@H](Oc2cc(O)c3c(=O)c(O)c(-c4ccc(O)c(O)c4)oc3c2)[C@H](O)[C@@H](O)[C@@H]1O` [Q-7-GlcA], in the series on Caco-2/TC7 cell lysate, the “Change in rate (%)” value is recorded as −31.8%, the “Rate +MK571 (conjugate production)” value was 1.29 (±0.26) pmol/h and the “Rate control (conjugate production)” value is given as 1.89 (±0.16) pmol/h.

In the case of `O=C(O)[C@H]1O[C@@H](Oc2c(-c3ccc(O)cc3)oc3cc(O)cc(O)c3c2=O)[C@H](O)[C@@H](O)[C@@H]1O` [K-3-GlcA, kaempferol-3-glucuronide], in the series with Caco-2/TC7 cell lysate, the “Change in rate (%)” value was −19.3%, the “Rate +MK571 (conjugate production)” value is given as 1.40 (±0.08) pmol/h and the “Rate control (conjugate production)” value is given as 1.73 (±0.16) pmol/h.

Take `O=C(O)[C@H]1O[C@@H](Oc2c(-c3ccc(O)c(O)c3)oc3cc(O)cc(O)c3c2=O)[C@H](O)[C@@H](O)[C@@H]1O` [Q-3-GlcA]: in the series with Caco-2/TC7 cell lysate, the “Change in rate (%)” value is −21.8%, the “Rate +MK571 (conjugate production)” value is on record as 0.83 (±0.14) pmol/h and the “Rate control (conjugate production)” value is on record as 1.05 (±0.09) pmol/h.
